Measurements taken from patent US7141383B2, “EDG8 receptor, its preparation and use” (Sanofi-Aventis Deutschland GmbH, priority 2000, dated 2006).
Blank lines part the entries; values can stand above or below the compound they belong to.

How the values were obtained:
human EDG8 [1] = target: T1, human EDG8 (Homo sapiens, UniProt Q9H228); experiment: FLIPR intracellular Ca2+ mobilization in CHO cells transiently transfected with EDG8; assay type: cell-based; design: The 1197 bp PCR product was cloned into the pCDNA3.1(+) mammalian expression vector; expressed in transfected cells; host or cells: CHO-K1, transient transfection; settings: for EDG8-mediated increase in intracellular Ca2+ by lysophospholipid mediators: CHO cells transiently transfected with EDG8 and Gα16 or Gαqi5, lipids at 10, 100, 1000 nM
T1 sequence (Q9H228 whole entry): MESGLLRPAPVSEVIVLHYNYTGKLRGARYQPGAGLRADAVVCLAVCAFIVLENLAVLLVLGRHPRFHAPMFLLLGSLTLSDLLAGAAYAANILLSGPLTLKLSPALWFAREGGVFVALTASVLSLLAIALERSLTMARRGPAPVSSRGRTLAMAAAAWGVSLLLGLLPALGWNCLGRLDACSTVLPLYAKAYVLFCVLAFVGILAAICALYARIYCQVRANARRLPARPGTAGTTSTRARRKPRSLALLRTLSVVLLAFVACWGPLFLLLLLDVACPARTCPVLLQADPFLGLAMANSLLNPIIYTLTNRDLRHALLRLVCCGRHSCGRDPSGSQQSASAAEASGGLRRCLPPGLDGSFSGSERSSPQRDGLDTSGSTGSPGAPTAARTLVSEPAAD
Protocol: FIG. 3: Effects of S1P, LPA and related lysophospholipid mediators on EDG8-mediated increase in intracellular Ca^2+. CHO-cells were cotransfected with EDG8 and the G protein α subunits Gqi5 (upper panel) and G16 (lower panel) and rises in [Ca^2+]i were recorded with the FLIPR as described in Experimental procedures. The different lipids were applied in concentrations of 10, 100 and 1000 nM, respectively. Data are means of quadruplicate determinations of a representative experiment.
CHO-K1 cells were grown in basal ISCOVE medium supplemented with 10% fetal bovine serum at 37° C. in a humidified 5% CO2 incubator. For transfections, 2×10^5 cells were seeded into 35-mm dishes. About 24 hr later cells were transiently transfected at 50–80% confluency with the indicated receptor and G-protein constructs (1 μg of plasmid DNA each) using the Lipofectamine transfection reagent and the supplied protocol (GIBCO). 18–24 hr after transfection cells were seeded into 96well plates at a density of 50,000 cells per well and cultured for 18–24 additional hr until used in the functional FLIPR assays.
Twenty-four hours after transfection, cells were splitted into 96-well, black-wall microplates (Corning) at a density of 50,000 cells per well. 18–24 hr later, cells were loaded with 95 μl of HBSS containing 20 mM Hepes, 2.5 mM probenecid, 4 μM fluorescent calcium indicator dye Fluo4 (Molecular Probes) and 1% fetal bovine serum for 1 h (37° C., 5% CO2). Cells were washed three times with HBSS containing 20 mM Hepes and 2.5 mM probenecid in a cell washer. After the final wash, the solution was aspirated to a residual volume of 100 μl per 96 well. Lipid ligands were dissolved in DMSO as 2 mM stock solutions (treated with ultrasound when necessary) and diluted at least 1:100 into HBSS containing 20 mM HEPES, 2.5 mM probenecid and 0.4 mg/ml fatty acid free bovine serum albumine. Lipids were aliquoted as 2× solutions into a 96 well plate prior to the assay. The fluorometric imaging plate reader (FLIPR, Molecular Devices) was programmed to transfer 100 μl from each well of the ligand microplate to each well of the cellplate and to record fluorescence during 3 min in 1 second intervals during the first minute and 3 second intervals during the last two minutes. Total fluorescence counts from the 18-s to 37-s time points are used to determine agonist activity. The instrument software normalizes the fluorescent reading to give equivalent initial readings at time zero.

EDG6 receptor = EDG6 receptor (Homo sapiens, UniProt O95977); experiment: FLIPR intracellular Ca2+ mobilization in CHO cells transfected with EDG6; assay type: cell-based; settings: absence of any cotransfected G-protein α subunit
Sequence of EDG6 receptor (O95977 whole entry): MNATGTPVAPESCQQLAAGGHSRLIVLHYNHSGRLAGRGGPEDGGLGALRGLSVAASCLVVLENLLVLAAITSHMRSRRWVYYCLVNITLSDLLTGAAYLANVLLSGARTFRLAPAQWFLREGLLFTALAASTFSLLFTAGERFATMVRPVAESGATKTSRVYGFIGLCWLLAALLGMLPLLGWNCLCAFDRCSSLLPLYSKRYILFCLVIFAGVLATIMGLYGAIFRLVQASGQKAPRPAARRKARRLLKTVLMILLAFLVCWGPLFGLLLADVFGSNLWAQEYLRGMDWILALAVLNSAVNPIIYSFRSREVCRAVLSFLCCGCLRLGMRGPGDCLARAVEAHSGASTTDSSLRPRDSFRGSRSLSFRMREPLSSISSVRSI
Protocol: (§1) FIGS. 2A–F: Mobilization of intracellular Ca^2+ by S1P (10, 100 and 1000 nM) mediated by the EDG1, 3, 5, 6 and 8 receptor in CHO cells, cotransfected with empty vector DNA as a control or the indicated G-protein α subunits.
(§2) A: S1P-induced Ca^2+-response in CHO cells transfected with vector DNA alone or the G protein α subunits Gq, G16 and Gqi5. B-F: S1P-induced Ca^2+-response in CHO cells transfected with the indicated EDG-receptor subtypes. Agonist-mediated changes of intracellular Ca^2+ were measured with the FLIPR using the Ca^2+-sensitive dye FLUO4 as described in Experimental procedures. Fluorescence of transfected cells loaded with FLUO4 was recorded before and after addition of S1P, applied in the indicated concentrations. Data are expressed as means of quadruplicate determinations in a single experiment.
(§3) CHO-K1 cells were grown in basal ISCOVE medium supplemented with 10% fetal bovine serum at 37° C. in a humidified 5% CO2 incubator. For transfections, 2×10^5 cells were seeded into 35-mm dishes. About 24 hr later cells were transiently transfected at 50–80% confluency with the indicated receptor and G-protein constructs (1 μg of plasmid DNA each) using the Lipofectamine transfection reagent and the supplied protocol (GIBCO). […]

CHO cells = experiment: FLIPR intracellular Ca2+ mobilization in CHO cells without EDG receptor (vector or G protein alpha subunits only); assay type: cell-based, chinese hamster
Protocol: as §1, §2, §3

EDG1 receptor = EDG1 receptor (Homo sapiens, UniProt P21453); experiment: FLIPR intracellular Ca2+ mobilization in CHO cells transfected with EDG1; assay type: cell-based; settings: transiently transfected CHO cells; 10, 100, 1000 nM
Sequence of EDG1 receptor (P21453 whole entry): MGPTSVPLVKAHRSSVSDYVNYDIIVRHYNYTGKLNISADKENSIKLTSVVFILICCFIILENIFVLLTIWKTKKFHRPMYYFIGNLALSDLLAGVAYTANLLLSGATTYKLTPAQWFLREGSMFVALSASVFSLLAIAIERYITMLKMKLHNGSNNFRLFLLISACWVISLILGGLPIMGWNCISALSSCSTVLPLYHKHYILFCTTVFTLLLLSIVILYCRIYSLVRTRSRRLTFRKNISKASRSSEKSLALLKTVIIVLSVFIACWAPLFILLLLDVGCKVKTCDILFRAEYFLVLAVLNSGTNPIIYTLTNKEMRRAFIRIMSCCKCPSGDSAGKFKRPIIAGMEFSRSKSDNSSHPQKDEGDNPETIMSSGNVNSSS
Protocol: as §1, §2, §3

EDG3 receptor = EDG3 receptor (Homo sapiens, UniProt Q99500); experiment: FLIPR intracellular Ca2+ mobilization in CHO cells transfected with EDG3; assay type: cell-based; settings: transiently transfected CHO cells; 10, 100, 1000 nM
Sequence of EDG3 receptor (Q99500 whole entry): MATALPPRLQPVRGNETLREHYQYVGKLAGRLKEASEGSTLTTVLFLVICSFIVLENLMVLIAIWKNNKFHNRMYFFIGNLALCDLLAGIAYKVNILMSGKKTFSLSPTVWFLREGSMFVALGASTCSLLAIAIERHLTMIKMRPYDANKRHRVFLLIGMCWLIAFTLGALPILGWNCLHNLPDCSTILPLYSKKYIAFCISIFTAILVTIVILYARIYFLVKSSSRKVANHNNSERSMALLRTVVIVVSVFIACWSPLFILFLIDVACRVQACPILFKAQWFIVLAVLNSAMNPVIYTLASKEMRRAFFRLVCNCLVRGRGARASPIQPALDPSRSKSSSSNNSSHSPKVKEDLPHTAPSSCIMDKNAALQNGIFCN
Protocol: as §1, §2, §3

EDG5 receptor = target: T2, EDG5 receptor (Homo sapiens, UniProt O95136); experiment: FLIPR intracellular Ca2+ mobilization in CHO cells transfected with EDG5; assay type: cell-based; settings: transiently transfected CHO cells; 10, 100, 1000 nM
T2 construct: expressed in transfected cells; host or cells: CHO-K1, transient transfection
T2 sequence (O95136 whole entry): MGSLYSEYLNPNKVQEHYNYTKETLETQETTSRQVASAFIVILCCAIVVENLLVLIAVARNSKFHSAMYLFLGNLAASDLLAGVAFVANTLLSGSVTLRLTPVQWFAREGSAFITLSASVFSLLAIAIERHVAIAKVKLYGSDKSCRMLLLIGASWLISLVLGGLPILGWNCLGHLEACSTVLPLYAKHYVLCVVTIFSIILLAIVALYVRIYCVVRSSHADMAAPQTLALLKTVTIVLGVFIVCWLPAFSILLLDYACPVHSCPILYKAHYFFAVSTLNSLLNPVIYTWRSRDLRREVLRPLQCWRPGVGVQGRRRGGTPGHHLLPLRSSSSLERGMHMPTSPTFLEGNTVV
Protocol: as §1, §2, §3

rat EDG8 = target: T3, rat EDG8 (Rattus norvegicus, UniProt Q9JKM5); experiment: Effect of inhibitor alone on [Ca2+]i during preincubation, cells cotransfected with rat EDG8 and Gαqi5; assay type: cell-based; settings: 3 minutes, before 1 μM S1P
T3 construct: expressed in transfected cells
T3 sequence (Q9JKM5 whole entry): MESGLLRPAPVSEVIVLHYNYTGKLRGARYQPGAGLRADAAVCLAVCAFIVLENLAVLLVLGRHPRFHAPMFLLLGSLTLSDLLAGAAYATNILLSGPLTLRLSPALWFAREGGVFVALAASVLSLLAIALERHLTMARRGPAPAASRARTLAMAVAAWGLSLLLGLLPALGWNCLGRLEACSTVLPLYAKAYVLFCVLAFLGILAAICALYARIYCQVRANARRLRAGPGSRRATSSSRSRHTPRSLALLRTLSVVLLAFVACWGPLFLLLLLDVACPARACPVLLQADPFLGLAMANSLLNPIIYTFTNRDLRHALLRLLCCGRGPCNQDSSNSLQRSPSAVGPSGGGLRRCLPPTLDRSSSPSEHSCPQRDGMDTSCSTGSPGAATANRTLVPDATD
Protocol: (§4) FIG. 9: Inhibition of S1P mediated intracellular calcium release by suramin and NF023 (8,8′-(carbonylbis(imino-3,1-phenylene))bis-(1,3,5-naphatlenetrisulfonic acid)) in cells transiently cotransfected with human EDG8 and Gαqi5 (A) and rat EDG8 and Gαqi5 (B). […] Cells were then stimulated with 1 μM S1P and in [Ca^2+]i measured with the FLIPR as described in the method section. Peak fluorescence counts were normalized and background responses of Gαqi5-transfected cells were subtracted. S1P-mediated calcium release in the absence of inhibitor was set 100%. Data are means±SE of 4–7 independent experiments.
(§5) Twenty-four hours after transfection, cells were splitted into 96-well, black-wall microplates (Corning) at a density of 50,000 cells per well. […] The fluorometric imaging plate reader (FLIPR, Molecular Devices) was programmed to transfer 100 μl from each well of the ligand microplate to each well of the cellplate and to record fluorescence during 3 min in 1 second intervals during the first minute and 3 second intervals during the last two minutes. Total fluorescence counts from the 18-s to 37-s time points are used to determine agonist activity. The instrument software normalizes the fluorescent reading to give equivalent initial readings at time zero.

human EDG8 [2] = target: T1, human EDG8; experiment: Effect of inhibitor alone on [Ca2+]i during preincubation, cells cotransfected with human EDG8 and Gαqi5; assay type: cell-based; design: The 1197 bp PCR product was cloned into the pCDNA3.1(+) mammalian expression vector; expressed in transfected cells; settings: 3 minutes, before 1 μM S1P
Protocol: as §4, §5

Compound: CCCCCCCCCCCCCCC[C@@H](O)[C@@H](N)COP(=O)(O)O [dHS1P, dihydro sphingosine 1-phosphate]
EDG8-mediated increase in intracellular Ca2+ by lysophospholipid mediators (human EDG8 [1]): evoked [Ca^2+]i increases in concentrations of 100 and 1000 nM

EDG8-mediated increase in intracellular Ca2+ by lysophospholipid mediators (human EDG8 [1]): most potent activator of EDG8
S1P-induced Ca2+ mobilization via EDG8 (human EDG8 [1]; CHO cells, EDG8 cotransfected with Gα16 or Gαqi5, 10, 100 and 1000 nM): gained the ability to mobilize Ca^2+
S1P-induced [Ca2+]i release via EDG8 (human EDG8 [1]; CHO cells, EDG8 without cotransfected G protein α subunit, 10, 100 and 1000 nM): did not release [Ca^2+]i
S1P-induced [Ca2+]i mobilization via EDG1 (EDG1 receptor): mobilize [Ca^2+]i in response to S1P
S1P-induced [Ca2+]i mobilization via EDG3 (EDG3 receptor): mobilize [Ca^2+]i in response to S1P
S1P-induced [Ca2+]i mobilization via EDG5 (EDG5 receptor): mobilize [Ca^2+]i in response to S1P
Compound: CCCCCCCCCCCCC/C=C/[C@@H](O)[C@@H](N)COP(=O)(O)O [S1P, sphingosine 1-phosphate]
S1P-induced [Ca2+]i mobilization via EDG6 (EDG6 receptor): failed to detect a significant Ca^2+ increase above basal levels
S1P-induced rise in intracellular Ca2+ (CHO cells; CHO cells transfected with empty vector DNA, 10, 100, 1000 nM): None of the applied S1P concentrations was capable of eliciting significant rises in intracellular Ca^2+
S1P-induced increase in [Ca2+]i (CHO cells; Gqi5- and G16-transfected CHO cells, no EDG receptor): did not give rise to significant increases in [Ca^2+]i

Compound: lysophosphatidic acid [LPA]
EDG8-mediated increase in intracellular Ca2+ by lysophospholipid mediators (human EDG8 [1]): evoked [Ca^2+]i increases in concentrations of 100 and 1000 nM

Compound: lysophosphatidylcholine [LPC]
EDG8-mediated increase in intracellular Ca2+ by lysophospholipid mediators (human EDG8 [1]): failed to generate any significant response in concentrations up to 1 μM

Effect on [Ca2+]i mobilization during preincubation period (rat EDG8): did not show any effect
Effect on [Ca2+]i mobilization during preincubation period (human EDG8 [2]): did not show any effect
Compound: Cc1ccc(C(=O)Nc2ccc(S(=O)(=O)O)c3cc(S(=O)(=O)O)cc(S(=O)(=O)O)c23)cc1NC(=O)c1cccc(NC(=O)Nc2cccc(C(=O)Nc3cc(C(=O)Nc4ccc(S(=O)(=O)O)c5cc(S(=O)(=O)O)cc(S(=O)(=O)O)c45)ccc3C)c2)c1 [suramin]

Compound: CCCCCCCCCCCCC/C=C/[C@@H](O)[C@@H](N)COP(=O)([O-])OCC[N+](C)(C)C [SPC, sphingosylphosphorylcholine]
EDG8-mediated increase in intracellular Ca2+ by lysophospholipid mediators (human EDG8 [1]): failed to generate any significant response in concentrations up to 1 μM
